Assay results published in patent US9486544B2, “Manganese chelates and their use as contrast agents in magnetic resonance imaging (MRI)” (GE Healthcare AS, priority 2009, dated 2016).
Read-outs that look alike come from different tables or passages of the source.

Columns and labels:
Format in all cases: physicochemical
[1] = Relaxivity analysis in water; conditions: degassed Millipore water, 0.05 to 1 mM complex
Method: (§1) The relaxivity measurements were performed with a range of 0.05 to 1 mM complex solutions on a Bruker Minispec PC 120b-NA 770, at 20 MHz or a Bruker Minispec Mq 60m at 60 MHz and 37° C. The solutions were obtained by dissolving the appropriate amount of chelate in degassed Millipore water or human serum.

[2] = Kinetic stability: exchange reaction with Zn2+ in acetate buffer, monitored by relaxivity; conditions: acetate buffer with Zn2+ challenge, acetate buffer 10 mM, 25° C., chelate approx. 0.5 mM, read-out: Dissociation Half life t1/2
Method: The kinetic stability of manganous chelates was characterized by the rates of exchange reaction with Zn^2+, in acetate buffer (10 mM) set to various pH. The increase of free manganous ions was monitored using a Bruker Minispec PC 120b-NA 770, at 20 MHz and 25° C. The total ionic strength was adjusted to 0.5M with KCl. The chelate concentration was approximately 0.5 mM for all measurements.
The change in concentration of chelated manganese, upon challenge with zinc ions, was monitored spectroscopically. When zinc displaces a manganous ion a net increase in relaxivity was observed as the free manganous ion has a relaxivity of ˜10 mM^−1s^−1, whereas the studied manganese chelates have a lower relaxivity.
The pseudo first-order rate constants (kobs) were calculated by fitting the relaxivity data to the following equation: […] in which At, A0, and Ae are the relaxivity values at time t, the start of the reaction, and at equilibrium, respectively. The dissociation half life was derived from kobs.

[3] = Relaxivity analysis in human serum; conditions: 0.05 to 1 mM complex
Method: as §1

[4] = Water exchange measurements (variable-temperature 17O NMR); conditions: TRIS 0.05 M pH 7.4, 6 to 15 mM complex
Method: Water Exchange Measurements
The water exchange measurements were performed with 6 to 15 mM complex solutions. The solutions were obtained by dissolving the appropriate amount of complex in 0.6 mL of buffer solution (TRIS, 0.05 M, pH 7.4 in degassed Millipore water at ca. 3 atom % ^17O-enrichment); Variable-temperature Fourier transform ^17O NMR spectra were recorded at a frequency of 40.7 MHz on a Varian Unity 300 MHz spectrometer. The temperatures were measured using methanol and ethylene glycol standards. The temperature dependence of the ^17O line broadening for each system was measured over a temperature range from 273.7 to 356.1 K. Each temperature was calibrated using a methanol or ethylene glycol standard.

Structure (SMILES) | Relaxivity Water @ 20 MHz, 37° C. [1] [mM⁻¹ s⁻¹] | half-life at 0.5 mM ([2]; pH 4.6, pH 4.6, [Zn] 10 mM) [min] | half-life at 0.5 mM ([2]; pH 5, pH 5.0, [Zn] 10 mM) [min] | half-life at 0.5 mM ([2]; pH 5.2, pH 5.2, [Zn] 10 mM) [min] | half-life at 0.5 mM ([2]; pH 5.2, pH 5.2, [Zn] 20 mM) [min] | half-life at 0.5 mM ([2]; pH 5.4, pH 5.4, [Zn] 10 mM) [min] | half-life at 0.5 mM ([2]; pH 5.6, pH 5.6, [Zn] 10 mM) [min] | half-life at 0.5 mM ([2]; pH 5.6, pH 5.6, [Zn] 20 mM) [min] | Relaxivity Human Serum @ 60 MHz, 37° C. [3] [mM⁻¹ s⁻¹] | Water residence time [4] [ns]
O=C(O)CN1CCN2CC(=O)[O][Mn][O]C(=O)CN(CC1)Cc1cccc(n1)C2 [Compound disclosed in US5334371, reference compound] | 1.3 | – | – | – | – | – | – | – | – | –
O=C1CN2CCNCCN(CC(=O)[O][Mn][O]1)Cc1cccc(n1)C2 [Compound disclosed in US5334371, reference compound] | – | 3 | 6 | 9 | 10 | 15 | 22 | 23 | – | –
CN1CCN2CC(=O)[O][Mn][O]C(=O)CN(CC1)Cc1cccc(n1)C2 [Example 1, manganese(II) complex of 3,6,9,15-tetraaza-3,9-bis-(carboxymethyl)-6-methyl-bicyclo[9.3.1]pentadeca-1(14),11(15),12-triene] | 2.4 | 10 | 21 | 30 | 37 | 44 | 72 | 77 | 4.6 | 16
CN1CCN2CC(=O)[O][Mn][O]C(=O)CN(CC1)Cc1cc(NC(=O)c3cc(C(=O)Nc4cc5nc(c4)CN4CCN(C)CCN(CC(=O)[O][Mn][O]C(=O)C4)C5)cc(C(=O)Nc4cc5nc(c4)CN4CCN(C)CCN(CC(=O)[O][Mn][O]C(=O)C4)C5)c3)cc(n1)C2 [Example 2, manganese(II) complex of N1,N3,N5-tris[3,6,9,15-tetraaza-3,9-bis-(carbonylmethyl)-6-methyl-bicyclo[9.3.1]pentadeca-13-trienyl]benzene-1,3,5-tricarboxamide] | 3.8 | – | – | – | – | – | – | – | 10.5 | 14
CN1CCN2CC(=O)[O][Mn][O]C(=O)CN(CC1)Cc1cc(NC(=O)c3ccccc3)cc(n1)C2 [Example 6, manganese complex of N,13-Benzamide-3,6,9,15-tetraaza-3,9-bis-(carboxymethyl)-6-methyl-bicyclo[9.3.1]pentadeca-1(14),11(15),12-triene] | – | – | – | – | – | – | – | – | 8.8 | –
